Source: patent publication US20210115040A1, “OGA INHIBITOR COMPOUNDS” (Janssen Pharmaceutica NV, priority 2018, published 2021)

Target: T1, recombinant human Meningioma Expressed Antigen 5 (MGEA5), also referred to as O-GlcNAcase (OGA) (Homo sapiens, UniProt O60502)
T1 construct: Full length OGA enzyme was purchased at OriGene (cat #TP322411); purchased OriGene TP322411
T1 sequence (O60502 1-916): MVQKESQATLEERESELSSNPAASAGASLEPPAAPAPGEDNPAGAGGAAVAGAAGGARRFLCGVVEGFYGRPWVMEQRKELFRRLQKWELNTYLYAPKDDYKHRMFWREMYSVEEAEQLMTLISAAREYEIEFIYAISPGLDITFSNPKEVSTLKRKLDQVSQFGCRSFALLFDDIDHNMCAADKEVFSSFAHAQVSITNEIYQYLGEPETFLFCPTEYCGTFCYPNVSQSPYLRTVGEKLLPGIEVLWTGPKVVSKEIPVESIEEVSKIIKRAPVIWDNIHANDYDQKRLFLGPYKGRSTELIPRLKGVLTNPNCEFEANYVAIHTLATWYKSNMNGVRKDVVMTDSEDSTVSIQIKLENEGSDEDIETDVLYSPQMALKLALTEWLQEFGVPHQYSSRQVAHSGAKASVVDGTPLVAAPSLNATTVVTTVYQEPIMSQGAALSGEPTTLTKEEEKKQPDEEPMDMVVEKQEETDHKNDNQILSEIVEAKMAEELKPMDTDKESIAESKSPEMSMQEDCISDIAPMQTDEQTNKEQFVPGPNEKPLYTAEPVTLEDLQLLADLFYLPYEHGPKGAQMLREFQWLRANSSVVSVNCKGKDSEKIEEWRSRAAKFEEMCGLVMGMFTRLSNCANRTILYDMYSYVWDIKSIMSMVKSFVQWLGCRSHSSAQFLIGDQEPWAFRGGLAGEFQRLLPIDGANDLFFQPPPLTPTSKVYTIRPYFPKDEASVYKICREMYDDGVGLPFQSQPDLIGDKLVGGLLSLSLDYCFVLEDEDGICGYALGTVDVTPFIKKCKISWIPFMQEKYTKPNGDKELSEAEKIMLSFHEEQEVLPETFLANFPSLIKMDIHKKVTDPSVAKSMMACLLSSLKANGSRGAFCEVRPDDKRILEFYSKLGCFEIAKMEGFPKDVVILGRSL
Experiment: OGA biochemical assay (inhibition of FM-GlcNAc hydrolysis, fluorescence)
Settings: FM-GlcNAc substrate, 6 h at room temperature, read-out: Enzymatic hOGA, pIC50 (converted)
Description: The assay is based on the inhibition of the hydrolysis of fluorescein mono-β-D-N-Acetyl-Glucosamine (FM-GlcNAc) (Mariappa et al. 2015, Biochem J 470:255) by the recombinant human Meningioma Expressed Antigen 5 (MGEA5), also referred to as O-GlcNAcase (OGA). The hydrolysis FM-GlcNAc (Marker Gene technologies, cat #M1485) results in the formation of β-D-N-glucosamineacetate and fluorescein. The fluorescence of the latter can be measured at excitation wavelength 485 nm and emission wavelength 538 nm. An increase in enzyme activity results in an increase in fluorescence signal. Full length OGA enzyme was purchased at OriGene (cat #TP322411). The enzyme was stored in 25 mM Tris.HCl, pH 7.3, 100 mM glycine, 10% glycerol at −20° C. Thiamet G and GlcNAcStatin were tested as reference compounds (Yuzwa et al. 2008 Nature Chemical Biology 4:483; Yuzwa et al. 2012 Nature Chemical Biology 8:393). The assay was performed in 200 mM Citrate/phosphate buffer supplemented with 0.005% Tween-20. 35.6 g Na2HPO4 2H2O (Sigma, #C0759) were dissolved in 1 L water to obtain a 200 mM solution. 19.2 g citric acid (Merck, #1.06580) was dissolved in 1 L water to obtain a 100 mM solution. pH of the sodiumphosphate solution was adjusted with the citric acid solution to 7.2. The buffer to stop the reaction consists of a 500 mM Carbonate buffer, pH 11.0. 734 mg FM-GlcNAc were dissolved in 5.48 mL DMSO to obtain a 250 mM solution and was stored at −20° C. OGA was used at a 2 nM concentration and FM-GlcNAc at a 100 uM final concentration. Dilutions were prepared in assay buffer.
50 nl of a compound dissolved in DMSO was dispensed on Black Proxiplate™ 384 Plus Assay plates (Perkin Elmer, #6008269) and 3 μl fl-OGA enzyme mix added subsequently. Plates were pre-incubated for 60 min at room temperature and then 2 μl FM-GlcNAc substrate mix added. […] Plates were briefly centrifuged for 1 min at 1000 rpm and incubate at room temperature for 6 h. To stop the reaction 5 μl STOP buffer were added and plates centrifuge again 1 min at 1000 rpm. Fluorescence was quantified in the Thermo Scientific Fluoroskan Ascent or the PerkinElmer EnVision with excitation wavelength 485 nm and emission wavelength 538 nm.
For analysis a best-fit curve is fitted by a minimum sum of squares method. From this an IC50 value and Hill coefficient was obtained. High control (no inhibitor) and low control (saturating concentrations of standard inhibitor) were used to define the minimum and maximum values.

IC50 | Compound
501 nM | Cc1cc(C[C@H]2CCCN(C(C)c3ccc4nc(C)sc4c3)C2)cc(C)n1 (mixture of isomers) [Compound 51]
63.1 nM | Cc1cc(C[C@H]2CCCN(Cc3ccc4sc(C)nc4n3)C2)cc(C)n1 (mixture of isomers) [Compound 52]
10 nM | COc1cc(OC[C@H]2CCCN(C(C)c3ccc4sc(C)nc4n3)C2)cc(C)n1 (mixture of isomers) [Compound 54]
3.16 nM | Cc1cc(CO[C@H]2CCCN(C(C)c3cc4nc(C)sc4cc3F)C2)cc(C)n1 (mixture of isomers) [Compound 99]

Further lines, the compound ahead of its results:

Compound | IC50
Cc1cc(C[C@H]2CCCN(C(C)c3cnc4c(c3)nc(C)n4C)C2)cc(C)n1 (mixture of isomers) [Compound 11] | 31.6 nM
Cc1cc(OC[C@@H]2CCN(C(C)c3ccc4sc(C)nc4n3)C2)cc(C)n1 (mixture of isomers) [Compound 47] | 398 nM
Cc1cc(OC[C@H]2CCN(C(C)c3ccc4sc(C)nc4n3)C2)cc(C)n1 (mixture of isomers) [Compound 48] | 794 nM
Cc1cc(C[C@H]2CCCN(C(C)c3ccc4nc(C)[nH]c4n3)C2)cc(C)n1 (mixture of isomers) [Compound 8] | 100 nM
Cc1cc(C[C@H]2CCCN(C(C)c3ccc4cn(C)nc4n3)C2)cc(C)n1 (mixture of isomers) [Compound 12ab] | 25.1 nM
Cc1cc(C[C@H]2CCCN(C(C)c3ccc4cn(C)nc4c3)C2)cc(C)n1 (mixture of isomers) [Compound 16] | 126 nM

Same assay, conditions: FM-GlcNAc substrate, maximal effect, read-out: Enzymatic Emax (%)

Emax | Compound
99% | Cc1cc(C[C@H]2CCCN(C(C)c3ccc4nc(C)sc4c3)C2)cc(C)n1 (mixture of isomers) [Compound 51]
103% | Cc1cc(C[C@H]2CCCN(Cc3ccc4sc(C)nc4n3)C2)cc(C)n1 (mixture of isomers) [Compound 52]
100% | COc1cc(OC[C@H]2CCCN(C(C)c3ccc4sc(C)nc4n3)C2)cc(C)n1 (mixture of isomers) [Compound 54]
99% | Cc1cc(CO[C@H]2CCCN(C(C)c3cc4nc(C)sc4cc3F)C2)cc(C)n1 (mixture of isomers) [Compound 99]

Further lines, the compound ahead of its results:

Compound | Emax
Cc1cc(C[C@H]2CCCN(C(C)c3cnc4c(c3)nc(C)n4C)C2)cc(C)n1 (mixture of isomers) [Compound 11] | 100%
Cc1cc(OC[C@@H]2CCN(C(C)c3ccc4sc(C)nc4n3)C2)cc(C)n1 (mixture of isomers) [Compound 47] | 99%
Cc1cc(OC[C@H]2CCN(C(C)c3ccc4sc(C)nc4n3)C2)cc(C)n1 (mixture of isomers) [Compound 48] | 93%
Cc1cc(C[C@H]2CCCN(C(C)c3ccc4nc(C)[nH]c4n3)C2)cc(C)n1 (mixture of isomers) [Compound 8] | 99%
Cc1cc(C[C@H]2CCCN(C(C)c3ccc4cn(C)nc4n3)C2)cc(C)n1 (mixture of isomers) [Compound 12ab] | 100%
Cc1cc(C[C@H]2CCCN(C(C)c3ccc4cn(C)nc4c3)C2)cc(C)n1 (mixture of isomers) [Compound 16] | 97%

Target: T2, OGA (Homo sapiens, UniProt O60502)
T2 construct: HEK293 cells inducible for P301L mutant human Tau (isoform 2N4R) were established at Janssen; endogenous in cells; host or cells: HEK293 cells inducible for P301L mutant human Tau (2N4R)
T2 sequence (O60502 1-916): T1 sequence (O60502 1-916)
Experiment: OGA cellular assay (ICC detection of O-GlcNAcylated proteins in HEK293 cells inducible for P301L mutant human Tau)
Type: cell-based
Settings: HEK293, HEK293 cells inducible for P301L mutant human Tau, maximum = Thiamet G 200 uM
Procedure: HEK293 cells inducible for P301L mutant human Tau (isoform 2N4R) were established at Janssen. Thiamet-G was used for both plate validation (high control) and as reference compound (reference EC50 assay validation). OGA inhibition is evaluated through the immunocytochemical (ICC) detection of O-GlcNAcylated proteins by the use of a monoclonal antibody (CTD110.6; Cell Signaling, #9875) detecting 0-GlcNAcylated residues as previously described (Dorfmueller et al. 2010 Chemistry & biology, 17:1250). Inhibition of OGA will result in an increase of O-GlcNAcylated protein levels resulting in an increased signal in the experiment. Cell nuclei are stained with Hoechst to give a cell culture quality control and a rough estimate of immediate compounds toxicity, if any. ICC pictures are imaged with a Perkin Elmer Opera Phenix plate microscope and quantified with the provided software Perkin Elmer Harmony 4.1.
Cells were propagated in DMEM high Glucose (Sigma, #D5796) following standard procedures. 2 days before the cell assay cells are split, counted and seeded in Poly-D-Lysine (PDL) coated 96-wells (Greiner, #655946) plate at a cell density of 12,000 cells per cm^2 (4,000 cells per well) in 100 μl of Assay Medium (Low Glucose medium is used to reduce basal levels of GlcNAcylation) (Park et al. 2014 The Journal of biological chemistry 289:13519). At the day of compound test medium from assay plates was removed and replenished with 90 μl of fresh Assay Medium. 10 μl of compounds at a 10fold final concentration were added to the wells. Plates were centrifuged shortly before incubation in the cell incubator for 6 hours. DMSO concentration was set to 0.2%. Medium is discarded by applying vacuum. For staining of cells medium was removed and cells washed once with 100 μl D-PBS (Sigma, #D8537). From next step onwards unless other stated assay volume was always 50 μl and incubation was performed without agitation and at room temperature. Cells were fixed in 50 μl of a 4% paraformaldehyde (PFA, Alpha aesar, #043368) PBS solution for 15 minutes at room temperature. […] Before analysis samples were washed 2 times manually for 5 minutes in ICC base buffer.
Imaging is performed using Perkin Elmer Phenix Opera using a water 20× objective and recording 9 fields per well. Intensity readout at 488 nm is used as a measure of O-GlcNAcylation level of total proteins in wells. To assess potential toxicity of compounds nuclei were counted using the Hoechst staining. IC50-values are calculated using parametric non-linear regression model fitting. As a maximum inhibition Thiamet G at a 200 uM concentration is present on each plate. In addition, a concentration response of Thiamet G is calculated on each plate.

Emax | Compound
70% | Cc1cc(C[C@H]2CCCN(Cc3ccc4sc(C)nc4n3)C2)cc(C)n1 (mixture of isomers) [Compound 52]
67% | COc1cc(OC[C@H]2CCCN(C(C)c3ccc4sc(C)nc4n3)C2)cc(C)n1 (mixture of isomers) [Compound 54]
66% | Cc1cc(CO[C@H]2CCCN(C(C)c3cc4nc(C)sc4cc3F)C2)cc(C)n1 (mixture of isomers) [Compound 99]

The remaining lines, values behind:

Compound | Emax
Cc1cc(C[C@H]2CCCN(C(C)c3cnc4c(c3)nc(C)n4C)C2)cc(C)n1 (mixture of isomers) [Compound 11] | 64%
Cc1cc(OC[C@@H]2CCN(C(C)c3ccc4sc(C)nc4n3)C2)cc(C)n1 (mixture of isomers) [Compound 47] | 11%
Cc1cc(OC[C@H]2CCN(C(C)c3ccc4sc(C)nc4n3)C2)cc(C)n1 (mixture of isomers) [Compound 48] | 16%
Cc1cc(C[C@H]2CCCN(C(C)c3ccc4nc(C)[nH]c4n3)C2)cc(C)n1 (mixture of isomers) [Compound 8] | 23%
Cc1cc(C[C@H]2CCCN(C(C)c3ccc4cn(C)nc4n3)C2)cc(C)n1 (mixture of isomers) [Compound 12ab] | 71%

Same assay, conditions: HEK293 cells inducible for P301L mutant human Tau, 6 hours incubation; read-out: Cellular hOGA; pEC50 (converted)

EC50 | Compound
> 1000 nM | Cc1cc(C[C@H]2CCCN(C(C)c3ccc4nc(C)sc4c3)C2)cc(C)n1 (mixture of isomers) [Compound 51]
501 nM | Cc1cc(C[C@H]2CCCN(Cc3ccc4sc(C)nc4n3)C2)cc(C)n1 (mixture of isomers) [Compound 52]
158 nM | COc1cc(OC[C@H]2CCCN(C(C)c3ccc4sc(C)nc4n3)C2)cc(C)n1 (mixture of isomers) [Compound 54]
63.1 nM | Cc1cc(CO[C@H]2CCCN(C(C)c3cc4nc(C)sc4cc3F)C2)cc(C)n1 (mixture of isomers) [Compound 99]

Further lines, the compound ahead of its results:

Compound | EC50
Cc1cc(C[C@H]2CCCN(C(C)c3cnc4c(c3)nc(C)n4C)C2)cc(C)n1 (mixture of isomers) [Compound 11] | 631 nM
Cc1cc(OC[C@@H]2CCN(C(C)c3ccc4sc(C)nc4n3)C2)cc(C)n1 (mixture of isomers) [Compound 47] | > 1000 nM
Cc1cc(OC[C@H]2CCN(C(C)c3ccc4sc(C)nc4n3)C2)cc(C)n1 (mixture of isomers) [Compound 48] | > 1000 nM
Cc1cc(C[C@H]2CCCN(C(C)c3ccc4nc(C)[nH]c4n3)C2)cc(C)n1 (mixture of isomers) [Compound 8] | > 1000 nM
Cc1cc(C[C@H]2CCCN(C(C)c3ccc4cn(C)nc4n3)C2)cc(C)n1 (mixture of isomers) [Compound 12ab] | 251 nM
Cc1cc(C[C@H]2CCCN(C(C)c3ccc4cn(C)nc4c3)C2)cc(C)n1 (mixture of isomers) [Compound 16] | > 1000 nM

Same assay, conditions: HEK293 cells inducible for P301L mutant human Tau, maximum = Thiamet G 200 uM

Compound | Emax
Cc1cc(C[C@H]2CCCN(C(C)c3ccc4cn(C)nc4c3)C2)cc(C)n1 (mixture of isomers) [Compound 16] | 14%
